Test results taken from article PMC3961306, “Comparison of the Cancer Gene Targeting and Biochemical Selectivities of All Targeted Kinase Inhibitors Approved for Clinical Use” (PLoS ONE, 2014).
Where two headings read alike, the source gives them in different places.

Tests used:
[1] = target: panel of more than 300 wild-type and mutant kinases (313 kinase panel) (Homo sapiens, UniProt P00533, L858R/T790M); assay: Kinase profiling in a biochemical assay panel (mobility shift assays and ELISA), %-inhibition at 1 μM; selectivity entropy; conditions: kinase EGFR(T790M/L858R); compound at 1 μM
[2] = target: panel of more than 300 wild-type and mutant kinases (313 kinase panel) (Homo sapiens, UniProt P07947, T348I); assay: as above; conditions: kinase YES(T348I); compound at 1 μM
[3] = target: panel of more than 300 wild-type and mutant kinases (313 kinase panel) (Homo sapiens, UniProt P00533, T790M); assay: as above; conditions: kinase EGFR(T790M); compound at 1 μM
[4] = target: panel of more than 300 wild-type and mutant kinases (313 kinase panel) (Homo sapiens, UniProt P00533); assay: as above; conditions: kinase EGFR; compound at 1 μM
[5] = target: panel of more than 300 wild-type and mutant kinases (313 kinase panel) (Homo sapiens, UniProt P00519, E255K); assay: as above; conditions: kinase ABL(E255K); 1 μM compound
[6] = target: panel of more than 300 wild-type and mutant kinases (313 kinase panel) (Homo sapiens, UniProt P15056, V600E); assay: as above; conditions: kinase BRAF(V600E); 1 μM compound
[7] = target: panel of more than 300 wild-type and mutant kinases (313 kinase panel) (Homo sapiens, UniProt P00519); assay: as above; conditions: kinase ABL; 1 μM compound
[8] = target: panel of more than 300 wild-type and mutant kinases (313 kinase panel) (Homo sapiens, UniProt P00533, L861Q); assay: as above; conditions: kinase EGFR(L861Q); compound at 1 μM
[9] = target: panel of more than 300 wild-type and mutant kinases (313 kinase panel) (Homo sapiens, UniProt P22612); assay: as above; conditions: kinase PKACγ; 1 μM
[10] = target: panel of more than 300 wild-type and mutant kinases (313 kinase panel) (Homo sapiens, UniProt P15056); assay: as above; conditions: kinase BRAF; 1 μM compound
[11] = target: panel of more than 300 wild-type and mutant kinases (313 kinase panel) (Homo sapiens, UniProt P00533, L858R); assay: as above; conditions: kinase EGFR(L858R); compound at 1 μM
[12] = target: panel of more than 300 wild-type and mutant kinases (313 kinase panel) (Homo sapiens, UniProt P09619); assay: as above; conditions: kinase PDGFRβ; 1 μM
[13] = target: panel of more than 300 wild-type and mutant kinases (313 kinase panel) (Homo sapiens, UniProt P11362, V561M); assay: as above; conditions: kinase FGFR1(V561M); compound at 1 μM
[14] = target: panel of more than 300 wild-type and mutant kinases (313 kinase panel) (Homo sapiens, UniProt Q9UM73, R1275Q); assay: as above; conditions: kinase ALK(R1275Q); 1 μM compound
[15] = test system: forty-four human cancer cell lines; assay: Cell proliferation assay (ATPlite, 72 hours) in the 44 cell line Oncolines panel; assay type: cell-based; conditions: Homo sapiens
[16] = 4-4 cell, read-out: cell panel IC50, J82
[17] = 4-4 cell, read-out: cell panel IC50, PA-1
[18] = 4-4 cell, read-out: cell panel IC50, SJCRH30
[19] = 4-4 cell, read-out: cell panel IC50, SR
[20] = 769-P, read-out: cell panel IC50, 769-P
[21] = 786-0, read-out: cell panel IC50, 786-0
[22] = A 172, read-out: cell panel IC50, A-172
[23] = A204, read-out: cell panel IC50, A-204
[24] = A498, read-out: cell panel IC50, A-498
[25] = A549, read-out: cell panel IC50, A-549
[26] = A-375, read-out: cell panel IC50, A375
[27] = A-427, read-out: cell panel IC50, A-427
[28] = ACHN, read-out: cell panel IC50, ACHN
[29] = AN3-CA, read-out: cell panel IC50, AN3 CA
[30] = AU565, read-out: cell panel IC50, AU-565
[31] = BT-20, read-out: cell panel IC50, BT-20
[32] = BT-549, read-out: cell panel IC50, BT-549
[33] = BXPC-3, read-out: cell panel IC50, BxPC-3
[34] = C-33-A, read-out: cell panel IC50, C-33 A
[35] = CAL-27, read-out: cell panel IC50, CAL 27
[36] = CCRF-CEM, read-out: cell panel IC50, CCRF-CEM
[37] = DLD-1, read-out: cell panel IC50, DLD-1
[38] = FaDu, read-out: cell panel IC50, FaDu
[39] = HCT-15, read-out: cell panel IC50, HCT-15
[40] = HCT-116, read-out: cell panel IC50, HCT-116
[41] = Hs-578T, read-out: cell panel IC50, Hs 578T
[42] = Jurkat E6.1, read-out: cell panel IC50, Jurkat E6.1
[43] = K562, read-out: cell panel IC50, K-562
[44] = LS174T, read-out: cell panel IC50, LS 174T
[45] = LoVo, read-out: cell panel IC50, LoVo
[46] = MG-63, read-out: cell panel IC50, MG-63
[47] = MOLT-4, read-out: cell panel IC50, MOLT-4
[48] = MeWo, read-out: cell panel IC50, MeWo
[49] = NCI-H82, read-out: cell panel IC50, NCI-H82
[50] = NCI-H460, read-out: cell panel IC50, NCI-H460
[51] = OVCAR-3, read-out: cell panel IC50, OVCAR-3
[52] = RPMI-7951, read-out: cell panel IC50, RPMI-7951
[53] = SHP77, read-out: cell panel IC50, SHP-77
[54] = SK-N-AS, read-out: cell panel IC50, SK-N-AS
[55] = SW48, read-out: cell panel IC50, SW48
[56] = SW480, read-out: cell panel IC50, SW480
[57] = SW-620, read-out: cell panel IC50, SW620
[58] = U2OS, read-out: cell panel IC50, U-2 OS
[59] = U-87 MG, 72 h, read-out: IC50 in cell proliferation assay (table S5 cellpanel data)

What does the source list for `COc1cc2nccc(Oc3ccc(NC(=O)C4(C(=O)Nc5ccc(F)cc5)CC4)cc3)c2cc1OC` [cabozantinib]?
%-inhibition of EGFR(T790M/L858R) [1]: 29%; %-inhibition of YES(T348I) [2]: 67%; %-inhibition of EGFR(T790M) [3]: 32%; %-inhibition of EGFR [4]: 54%; %-inhibition, ABL(E255K) [5]: 25%; %-inhibition, BRAF(V600E) [6]: 37%; %-inhibition, ABL [7]: 56%; %-inhibition of EGFR(L861Q) [8]: 46%; %-inhibition of PKACγ [9]: -2.59%; %-inhibition, BRAF [10]: 25%; %-inhibition of EGFR(L858R) [11]: 30%; %-inhibition of PDGFRβ [12]: 84%; %-inhibition of FGFR1(V561M) [13]: -2.45%; %-inhibition, ALK(R1275Q) [14]: 79%; IC50 [15, 16]: 22.9 µM; IC50 [15, 17]: 17.8 µM; IC50 [15, 18]: 15.2 µM; IC50 [15, 19]: 24.5 µM; IC50 [15, 20]: 30 µM; IC50 [15, 21]: 28.7 µM; IC50 [15, 22]: 14.6 µM; IC50 [15, 23]: 0.082 µM; IC50 [15, 24]: 24.1 µM; IC50 [15, 25]: 18.5 µM; IC50 [15, 26]: > 31.6 µM; IC50 [15, 27]: 14.3 µM; IC50 [15, 28]: 20.9 µM; IC50 [15, 29]: 6.03 µM; IC50 [15, 30]: 20.1 µM; IC50 [15, 31]: > 31.6 µM; IC50 [15, 32]: 30.3 µM; IC50 [15, 33]: 24.1 µM; IC50 [15, 34]: 19.7 µM; IC50 [15, 35]: 23.4 µM; IC50 [15, 36]: 19.5 µM; IC50 [15, 37]: 22.7 µM; IC50 [15, 38]: > 31.6 µM; IC50 [15, 39]: 21.9 µM; IC50 [15, 40]: 20.9 µM; IC50 [15, 41]: 24.2 µM; IC50 [15, 42]: 11.5 µM; IC50 [15, 43]: 3.94 µM; IC50 [15, 44]: > 31.6 µM; IC50 [15, 45]: 7.63 µM; IC50 [15, 46]: 15.6 µM; IC50 [15, 47]: 12.1 µM; IC50 [15, 48]: 29.8 µM; IC50 [15, 49]: 16.8 µM; IC50 [15, 50]: 28.1 µM; IC50 [15, 51]: > 31.6 µM; IC50 [15, 52]: 14.9 µM; IC50 [15, 53]: > 31.6 µM; IC50 [15, 54]: 31 µM; IC50 [15, 55]: 12.5 µM; IC50 [15, 56]: 16.2 µM; IC50 [15, 57]: 6.24 µM; IC50 [15, 58]: 19.3 µM; IC50 [15, 59]: 22.3 µM

With `Cc1ccc(Nc2nccc(N(C)c3ccc4c(C)n(C)nc4c3)n2)cc1S(N)(=O)=O` [pazopanib] as the compound, how does the “%-inhibition of EGFR(T790M/L858R)” value [1] read?
Its value is 43%.

What about the “%-inhibition of EGFR(T790M)” value [3] of the same compound?
Its value is 5%.

What about the “%-inhibition of EGFR” value [4] of the same compound?
Its value is 17%.

And the “%-inhibition of EGFR(L861Q)” value [8]?
The value was 13%.

What about the “%-inhibition of EGFR(L858R)” value [11] of the same compound?
Its value is 36%.

What about the “%-inhibition of PDGFRβ” value [12] of the same compound?
The value was 96%.

And the IC50 [15, 16]?
The IC50 was 28.9 µM.

And the IC50 [15, 17]?
Its IC50 is 10.6 µM.

What about the IC50 [15, 18] of the same compound?
The IC50 was 9.59 µM.

What about the IC50 [15, 19] of the same compound?
Its IC50 is 6.2 µM.

And the IC50 [15, 20]?
Its IC50 is 5.99 µM.

What about the IC50 [15, 21] of the same compound?
The IC50 was 8.1 µM.

And the IC50 [15, 22]?
The IC50 was 13.1 µM.

And the IC50 [15, 23]?
Its IC50 is 0.229 µM.

What about the IC50 [15, 24] of the same compound?
Its IC50 is 11.1 µM.

What about the IC50 [15, 25] of the same compound?
Its IC50 is 14.8 µM.

And the IC50 [15, 26]?
Its IC50 is 16.7 µM.

What about the IC50 [15, 27] of the same compound?
The IC50 was 7.3 µM.

What about the IC50 [15, 28] of the same compound?
The IC50 was 9.33 µM.

What about the IC50 [15, 29] of the same compound?
Its IC50 is 0.289 µM.

And the IC50 [15, 30]?
The IC50 was 6.57 µM.

What about the IC50 [15, 31] of the same compound?
Its IC50 is 19.2 µM.

And the IC50 [15, 32]?
Its IC50 is 7.91 µM.

And the IC50 [15, 33]?
Its IC50 is 6.71 µM.

And the IC50 [15, 34]?
Its IC50 is 7.9 µM.

And the IC50 [15, 35]?
Its IC50 is 18.6 µM.

And the IC50 [15, 36]?
Its IC50 is 10.9 µM.

And the IC50 [15, 37]?
The IC50 was 10.5 µM.

What about the IC50 [15, 38] of the same compound?
Its IC50 is 11.5 µM.

What about the IC50 [15, 39] of the same compound?
Its IC50 is 11.8 µM.

What about the IC50 [15, 40] of the same compound?
The IC50 was 17.4 µM.

And the IC50 [15, 41]?
The IC50 was 11.5 µM.

What about the IC50 [15, 42] of the same compound?
Its IC50 is 4.58 µM.

What about the IC50 [15, 43] of the same compound?
The IC50 was 12.5 µM.

And the IC50 [15, 44]?
Its IC50 is 9.94 µM.

What about the IC50 [15, 45] of the same compound?
The IC50 was 7.39 µM.

What about the IC50 [15, 46] of the same compound?
Its IC50 is 13.5 µM.

What about the IC50 [15, 47] of the same compound?
Its IC50 is 6.89 µM.

And the IC50 [15, 48]?
Its IC50 is 25.4 µM.

What about the IC50 [15, 49] of the same compound?
The IC50 was 8.41 µM.

What about the IC50 [15, 50] of the same compound?
Its IC50 is 1.63 µM.

And the IC50 [15, 51]?
Its IC50 is greater than 31.6 µM.

And the IC50 [15, 52]?
Its IC50 is 15.1 µM.

And the IC50 [15, 53]?
The IC50 was 12.5 µM.

And the IC50 [15, 54]?
Its IC50 is 19.4 µM.

And the IC50 [15, 55]?
The IC50 was 13.1 µM.

What about the IC50 [15, 56] of the same compound?
Its IC50 is 10.2 µM.

What about the IC50 [15, 57] of the same compound?
Its IC50 is 9.11 µM.

What about the IC50 [15, 58] of the same compound?
The IC50 was 14 µM.

What about the IC50 [15, 59] of the same compound?
The IC50 was 24 µM.
